Laboratory results: patent publication US10765655B2, “Composition containing monoacetyldiglyceride compound as active ingredient for preventing or treating chronic obstructive pulmonary disease” (ENZYCHEM LIFESCIENCES CORPORATION, priority 2013, dated 2020)
Marks after values point to notes of the source that are not given here.

Experiments:
[1] = tested on: sepsis animal model; conditions: cecal-ligation-puncture; cited from earlier work
[2] = tested on: CD4+ cells; test: COPD mouse model: CD4+ cells in BAL by flow cytometry; type: in vivo, BALB/c mice; conditions: for CD4^+ cells (10^4): BAL cells; for % inhibition of CD4^+ cells: vs COPD group
Procedure: (§1) To make COPD mouse models, 8-week-old male BALB/c mice were anesthetized with 7% chloral hydrate, and then intratracheally inhaled with 100 μl of a 1:1 mixture of 100 μg/ml of LPS and 4 mg/ml, of standard cigarette smoking (CS) extract (LPS+CS mixture) once a week for 3 weeks. […] EC-18 was dissolved in 0.5% CMC (carboxmethylcellulose sodium) to concentrations of 30 mg/kg and 60 mg/kg, and administered orally to the mice at 1 hour before intratracheal inhalation of 100 μl of the PS+CS mixture. The mice were divided into: (i) an untreated normal group (intact); (ii) a control group treated with LPS+CS (COPD-control); (iii) a test group administered orally with 30 mg/kg of EC-18 at 1 hour before treatment with LPS+CS; and (iv) a test group administered orally with 60 mg/kg of EC-18 at 1 hour before treatment with the LPS+CS mixture. After completion of the experiment, blood, bronchoalveolar lavage fluid and lung tissue were isolated from the mice of each of the groups.
(§2) The separated BAL cells were adjusted to 5×10^5 cells, and then subjected to immunofluorescence staining at 4° C. PE-anti-CD4 (553047, BD Pharmingen) and PE-anti-Gr-1 (553128, BD Pharmingen) were added to the cells which were then incubated on ice for 30 minutes. After incubation, the cells were washed three times or more with phosphate buffered saline, and then the frequency of CD4^+ cells and Gr-1^+ neutrophils was analyzed using the Cell Quest program (643274, BD Biosciences) of a flow cytometer. Next, based on total cells, the absolute number of cells in each tissue was calculated.

[3] = tested on: Gr-1+ neutrophils; test: COPD mouse model: Gr-1+ neutrophils in BAL by flow cytometry; type: in vivo, BALB/c mice; conditions: for Gr-1^+ neutrophils (10^4): BAL cells; for % inhibition of Gr-1^+ neutrophils: vs COPD group
Procedure: as §1, §2

[4] = tested on: CXCL-1; test: COPD mouse model: CXCL-1 in bronchoalveolar lavage fluid by ELISA; type: in vivo, BALB/c mice; conditions: for CXCL-1: BALF; for % inhibition of CXCL-1: vs COPD group
Procedure: as §1
(§3) The levels of CXCL-1, TNF-α and MIP-2 in the bronchoalveolar lavage isolated from the mice were measured by an enzyme-linked immunosorbent assay (ELISA). An antibody specific for each of CXCL-1, TNF-α and MIP-2 was diluted in coating buffer (291195, R&D System), coated on microwells, and then incubated overnight at 4° C. Each well was washed three times with washing buffer, and then 100 μl of serum (10-fold diluted) was added to each well. Each well was allowed to stand at room temperature for 1 hour, and then washed twice with washing buffer antibody, after which each well was treated with 100 μl of avidin-conjugated HRP (DY998, R&D System) and allowed to stand at room temperature for 1 hour, followed by washing. 100 μl of a TMB substrate was added to each well which was then allowed to stand in a dark room for 30 minutes and treated with 50 μl of a stop solution. Next, the absorbance at 450 nm was measured using an ELISA reader (Emax, Molecular Devices), and the percent inhibition of expression was calculated.

[5] = tested on: TNF-α; test: COPD mouse model: TNF-α in bronchoalveolar lavage fluid by ELISA; type: in vivo, BALB/c mice; conditions: for TNF-α: BALF; for % inhibition of TNF-α: vs COPD group
Procedure: as §1, §3

[6] = tested on: IL-4 mRNA; test: Inhibition of PMA-induced IL-4 mRNA expression in EL-4 cells (PCR); type: cell-based, mouse; conditions: 20 μg/mL, PMA 1 ng/mL; for Inhibition (%) of IL-4 mRNA expression: vs PMA-treated group
Procedure: Based on the results of Example 1, each of the monoacetyldiacylglycerol compounds was added to EL-4 cells at a concentration of 20 μg/mL, and the effect thereof on the inhibition of PMA-induced expression of IL-4 mRNA in the EL-4 cells was measured. Specifically, the expression level of IL-4 mRNA induced by PMA (1 ng/mL) was measured using real-time polymerase chain reaction (real-time PCR) and quantitative real time polymerase chain reaction (qPCR). For cell preparation, EL-4 cells were seeded into a 6-well plate at a concentration of 1×10^6 cells/well and cultured for 12 hours, after which the cells were treated with each of the monoacetyldiacylglycerol compounds at a concentration of 20 μg/mL for 1 hour and treated with PMA at a concentration of 1 ng/m, followed by culture for 12 hours. Total RNA was extracted from the cells using Trizol B (Invitrogen, USA) and quantified, and then cDNA was synthesized from the total RNA using an Omniscript RT kit (Qiagen, GmbH, Hilden, Germany). The synthesized cDNA as a template was mixed with each of the IL-4 and GAPDH primers shown in Table 2 below and was subjected to PCR using a PCR mix (PCR Master Mix, Bioneer, Korea) under the following conditions: denaturation at 94° C. for 5 minutes; and then 30 cycles, each consisting of 30 sec at 95° C., 45 sec at 60° C., and 45 sec at 72° C.; followed by enzyme inactivation at 72° C. for 10 minutes. The results of measuring the percent inhibition of expression of IL-4 mRNA in EL-4 cells as described above are shown in Table 3 below. The designation of each of the samples shown in Table 3 below is as described with respect to Table above.

[7] = tested on: neutrophils in bronchoalveolar lavage fluid; test: COPD mouse model (LPS+CS): neutrophil count in bronchoalveolar lavage fluid; type: in vivo, BALB/c mice; conditions: BALF; for % inhibition of neutrophil: vs COPD group
Procedure: as §1
(§4) After blood collection, the mice were dissected. To isolate cells from the bronchoalveolar lavage fluid (BALF), a syringe containing 1 ml of FBS-free DMEM medium was injected into the trachea and fixed with a string, and then cells were separated by performing circulation three times and were treated with ACK solution at 37° C. for 5 minutes to lyse red blood cells. Next, the cells were washed with FBS-free DMEM medium and then stained with 0.04% trypan blue, after which the number of total cells was measured.

[8] = GLP toxicity test; cited from earlier work
[9] = tested on: MIP-2; test: COPD mouse model: MIP-2 in bronchoalveolar lavage fluid by ELISA; type: in vivo, BALB/c mice; conditions: for MIP-2: BALF; for % inhibition of MIP-2: vs COPD group
Procedure: as §1, §3

[10] = tested on: total inflammatory cells in bronchoalveolar lavage fluid; test: COPD mouse model (LPS+CS): total cell count in bronchoalveolar lavage fluid; type: in vivo, BALB/c mice; conditions: BALF; for % inhibition of total cell: vs COPD group
Procedure: as §1, §4

[11] = tested on: EL-4 cells; conditions: mouse, 24 h, 10 μg/ml
Procedure: EL-4 cells that are mouse T lymphoma cells were suspended in 10% fetal bovine serum-containing RPMI medium (Gibco) at a concentration of 5×10^4 cells/ml, and 100 μl of the cell suspension was seeded into each well of a 96-well plate and cultured for 12 hours. Next, the cell culture was treated with monoacetyldiacylglycerol (MADG) compounds at the concentrations shown in Table 1 below, and was then additionally cultured for 24 hours. Next, according to the instruction provided in a CCK-8 kit (Dojindo) capable of counting cells, 10 μl of CCK-8 solution was added to the kit and allowed to react for 30 minutes to 4 hours, and then the absorbance (OD) at 570 nm was measured. In equation 1, the negative control group indicates a cell culture treated with 0.2% DMSO. […] Cell viability (%)=[(OD 570 nm value of MADC-treated group)/(OD 570 nm value of negative control group)]×100 Equation 1

CCCCC/C=C\C/C=C\CCCCCCCC(=O)OC(COC(C)=O)COC(=O)CCCCCCCCCCCCCCC (stereo not shown) [EC-18, 1-palmitoyl-2-linoleoyl-3-acetylglycerol]
survivability ratio of animals [1]: increases survivability ratio of animals
CD4^+ cells (10^4) ([2]; 30 mg/kg oral): 308.2 ± 66.78 10^4
% inhibition of CD4^+ cells ([2]; 30 mg/kg oral): 39.6%
CD4^+ cells (10^4) ([2]; 60 mg/kg oral): 152.8 ± 66.25 10^4
% inhibition of CD4^+ cells ([2]; 60 mg/kg oral): 70.0%
Gr-1^+ neutrophils (10^4) ([3]; 30 mg/kg oral): 20.0 ± 6.97 10^4
% inhibition of Gr-1^+ neutrophils ([3]; 30 mg/kg oral): 40.9%
Gr-1^+ neutrophils (10^4) ([3]; 60 mg/kg oral): 12.6 ± 4.93 10^4
% inhibition of Gr-1^+ neutrophils ([3]; 60 mg/kg oral): 62.7%
CXCL-1 ([4]; 30 mg/kg oral): 264.3 ± 79.77 pg/mL
% inhibition of CXCL-1 ([4]; 30 mg/kg oral): 15.4%
CXCL-1 ([4]; 60 mg/kg oral): 142.9 ± 26.99 pg/mL
% inhibition of CXCL-1 ([4]; 60 mg/kg oral): 54.3%
TNF-α ([5]; 30 mg/kg oral): 22.4 ± 13.98 pg/mL
% inhibition of TNF-α ([5]; 30 mg/kg oral): 36.0%
TNF-α ([5]; 60 mg/kg oral): 13.4 ± 5.33 pg/mL
% inhibition of TNF-α ([5]; 60 mg/kg oral): 61.8%
Expression level of IL-4 mRNA (percentage relative to PMA-treated group) [6]: 78.17 ± 6.26 percentage
Inhibition (%) of IL-4 mRNA expression [6]: 21.83%
Neutrophil ([7]; 30 mg/kg oral): no great change
% inhibition of neutrophil ([7]; 30 mg/kg oral): 3%
Neutrophil ([7]; 30 mg/kg oral, listed as EC18): 196.9 ± 31.61
Neutrophil ([7]; 60 mg/kg oral): 116.8 ± 37.43
% inhibition of neutrophil ([7]; 60 mg/kg oral): 42%
toxicity [8]: no-toxicity
MIP-2 ([9]; 30 mg/kg oral): 28.9 ± 5.72 pg/mL
% inhibition of MIP-2 ([9]; 30 mg/kg oral): 40.6%
MIP-2 ([9]; 60 mg/kg oral): 17.6 ± 4.07 pg/mL
% inhibition of MIP-2 ([9]; 60 mg/kg oral): 63.8%
Total cell (10^6) ([10]; 30 mg/kg oral): 81.0 ± 12.14^ 10^6
% inhibition of total cell ([10]; 30 mg/kg oral): 15.1%
Total cell (10^6) ([10]; 60 mg/kg oral): 52.8 ± 10.41* 10^6
% inhibition of total cell ([10]; 60 mg/kg oral): 44.8%

CCCCC/C=C\C/C=C\CCCCCCCC(=O)OCC(COC(C)=O)OC(=O)CCCCCCCCCCCCCCC (stereo not shown) [LPAG, 1-linoeoyl-2-palmitoyl-3-acetylglycerol]
Expression level of IL-4 mRNA (percentage relative to PMA-treated group) [6]: 61.11 ± 27.49 percentage

CCCCC/C=C\C/C=C\CCCCCCCC(=O)OCC(COC(C)=O)OC(=O)CCCCCCCCCCCCCCCCC (stereo not shown) [LSAG, 1-linoeoyl-2-stearoyl-3-acetylglycerol]
Expression level of IL-4 mRNA (percentage relative to PMA-treated group) [6]: 41.62 ± 17.61 percentage

CCCCCCCC/C=C\CCCCCCCC(=O)OCC(COC(C)=O)OC(=O)CCCCCCCCCCCCCCC (stereo not shown) [OPAG, 1-oleoyl-2-palmitoyl-3-acetylglycerol]
Expression level of IL-4 mRNA (percentage relative to PMA-treated group) [6]: 58.58 ± 21.74 percentage
Inhibition (%) of IL-4 mRNA expression [6]: 41.42%

CCCCCCCC/C=C\CCCCCCCC(=O)OCC(COC(C)=O)OC(=O)CCCCCCCCCCCCCCCCC (stereo not shown) [OSAG, 1-oleoyl-2-stearoyl-3-acetylglycerol]
Expression level of IL-4 mRNA (percentage relative to PMA-treated group) [6]: 55.84 ± 25.77 percentage
Inhibition (%) of IL-4 mRNA expression [6]: 44.16%

CCCCCCCC/C=C\CCCCCCCC(=O)OC(COC(C)=O)COC(=O)CCCCCCCCCCCCCCC (stereo not shown) [POAG, 1-palmitoyl-2-oleoyl-3-acetylglycerol]
EL-4 cell viability (%, mean ± SD) [11]: 106.39 ± 1.19%
Expression level of IL-4 mRNA (percentage relative to PMA-treated group) [6]: 75.47 ± 13.15 percentage
Inhibition (%) of IL-4 mRNA expression [6]: 24.53%

CCCCCCCCCCCCCCCC(=O)OCC(COC(C)=O)OC(=O)CCCCCCCCCCCCCCC (stereo not shown) [PPAG, 1-palmitoyl-2-palmitoyl-3-acetylglycerol]
Expression level of IL-4 mRNA (percentage relative to PMA-treated group) [6]: 48.62 ± 19.38 percentage
Inhibition (%) of IL-4 mRNA expression [6]: 51.38%

CCCCCCCCCCCCCCCCCC(=O)OC(COC(C)=O)COC(=O)CCCCCCCCCCCCCCC (stereo not shown) [PSAG, 1-palmitoyl-2-stearoyl-3-acetylglycerol]
Expression level of IL-4 mRNA (percentage relative to PMA-treated group) [6]: 70.49 ± 17.78 percentage
Inhibition (%) of IL-4 mRNA expression [6]: 29.51%
